In ChEMBL document CHEMBL1137320, “A novel class of carbonic anhydrase inhibitors: glycoconjugate benzene sulfonamides prepared by "click-tailing"” (J Med Chem, 2006):

Target: Carbonic anhydrase 9 (Homo sapiens, UniProt Q16790)

Ki | Structure (SMILES)
65 nM | NS(=O)(=O)c1ccc(C(=O)OCc2cn([C@@H]3O[C@H](CO)[C@H](O)[C@H](O)[C@H]3O)nn2)cc1
183 nM | NS(=O)(=O)c1ccc(C(=O)OCc2cn([C@@H]3O[C@H](CO)[C@@H](O)[C@H](O)[C@H]3O)nn2)cc1
104 nM | C#CCOC(=O)c1ccc(S(N)(=O)=O)cc1
204 nM | CO[C@H]1O[C@H](Cn2cc(CNC(=O)c3ccc(S(N)(=O)=O)cc3)nn2)[C@@H](O)[C@H](O)[C@H]1O
1200 nM | CC(=O)N[C@@H]1[C@@H](OC(C)=O)[C@H](OC(C)=O)[C@@H](COC(C)=O)O[C@H]1n1cc(COC(=O)c2ccc(S(N)(=O)=O)cc2)nn1
130 nM | CC(=O)OC[C@H]1O[C@@H](n2cc(COC(=O)c3ccc(S(N)(=O)=O)cc3)nn2)[C@H](OC(C)=O)[C@@H](OC(C)=O)[C@@H]1O[C@H]1O[C@H](COC(C)=O)[C@@H](OC(C)=O)[C@H](OC(C)=O)[C@H]1OC(C)=O
96 nM | NS(=O)(=O)c1ccc(C(=O)OCc2cn([C@@H]3OC[C@@H](O)[C@@H](O)[C@@H]3O)nn2)cc1
471 nM | COC(=O)[C@H]1O[C@@H](n2cc(CNC(=O)c3ccc(S(N)(=O)=O)cc3)nn2)[C@H](OC(C)=O)[C@@H](OC(C)=O)[C@@H]1OC(C)=O
241 nM | COC(=O)[C@H]1O[C@@H](n2cc(COC(=O)c3ccc(S(N)(=O)=O)cc3)nn2)[C@H](O)[C@@H](O)[C@@H]1O

Structure (SMILES) | Ki
CC(=O)OC[C@H]1O[C@@H](n2cc(CNC(=O)c3ccc(S(N)(=O)=O)cc3)nn2)[C@H](OC(C)=O)[C@@H](OC(C)=O)[C@H]1OC(C)=O | 76 nM
CC(=O)OC[C@H]1O[C@@H](n2cc(CNC(=O)c3ccc(S(N)(=O)=O)cc3)nn2)[C@H](OC(C)=O)[C@@H](OC(C)=O)[C@@H]1OC(C)=O | 430 nM
NS(=O)(=O)c1ccc(C(=O)NCc2cn([C@@H]3O[C@H](CO)[C@@H](O)[C@H](O)[C@H]3O)nn2)cc1 | 442 nM
